Patent US20080207632A1, “PROTEIN KINASE INHIBITORS” (SUPERGEN, INC., priority 2006, published 2008)
Read-outs that look alike come from different tables or passages of the source.

Columns and labels:
TT (medullary thyroid) = assay: in vitro cytotoxicity assay (Cell-Titer-Glo), TT; type: cell-based
Procedure: (§1) To evaluate cell killing of cancer cell lines, an in vitro cytotoxicity assay was performed. The tumor cell lines used were purchased from the American Type Culture Collection, and are identified as follows: Panc-1 (pancreas), MiaPaCa-2 (pancreas), MCF-7 (breast), HT-29 (colon), U2-OS (osteosarcoma), OVCAR-3 (ovary), HepG2 (hepatocellular carcinoma) and TT (medullary thyroid). The assay utilized the Cell-Titer-Glo Non-Radioactive Cell Proliferation Assay (Promega Corp., Madison, Wis.). First the cells were cultured in RPMI 1640 medium (Cat# 21870-076, Invitrogen Corporation) supplemented with 300 mg/L L-glutamine, 100 units/ml penicillin, 100 μg/ml streptomycin and 10% fetal bovine serum. All the cell lines were incubated in a humidified incubator at 37° C. with 5% CO2 atmosphere.
Cells were plated at a density of 2000 to 10000 cells per well, depending on their growth rate, in 0.09 mL medium on day 0 in 96-well Microlite TCT microtiter plates (7418, Thermo Labsystems, Franklin, Mass.). On day 1, 10 μL of serial dilutions of the individual compounds were added to the plates in replicates of 3. After incubation for 4 days at 37° C. in a humidified incubator, the cells were lysed in the Cell-Titer-Glo reagent, which also contains luciferase enzyme. The luciferase reaction utilizes ATP released from lysed cells to produce light, the intensity of which is linearly related to the amount of ATP. Thus, the amount of light produced is a reflection of the number of cells remaining in the well after drug treatment. This luminescence was measured using a Luminoskan luminometer (Thermo Electron Corp., Vantaa, Finland) Data were expressed as the percentage of survival of control cells calculated from the luminescence corrected for background. The surviving percent of cells was determined by dividing the mean luminescence values of the treated wells by the mean luminescence values of the control and multiplying by 100.
as §1, with “Briefly,” for “To evaluate cell killing of cancer cell lines, an in vitro cytotoxicity assay was performed. The”, “thyroid), PC-3 (prostate) and A549 (lung).” for “thyroid).”
Cell culture-based assays can be used to evaluate the ability of compounds of the invention to inhibit one or more cellular activities, such as cancer cell growth and/or survival. Numerous cancer cell lines can be obtained from the American Type Culture Collection (ATCC) and other sources. Briefly, cells are seeded into 96-well, tissue-culture treated, opaque white plates (Thermo Electron, Vantaa, Finland), at between 5000 and 10000 cells per well, depending on the speed of cell proliferation, in 100 μl of appropriate growth medium (determined by the ATCC). Cells are then exposed to the appropriate concentration of drug or an equal amount of DMSO (drug diluent) and allowed to grow in its presence for 96 hours. Following this, 100 μl of Cell-Titer-Glo reagent (Promega, Inc., Madison, Wis.) is added to each well. Plates are then shaken for 2 minutes at room temperature to allow for cell lysis and incubated for 10 minutes to stabilize the luminescent signal. Similar to the Kinase-Glo assay reagent from Promega, this reagent contains both luciferase enzyme and its substrate luciferin. Luciferase, activated by ATP in the cell lysate, catalyzes the conversion of luciferin to oxyluciferin, a reaction which produces light. […]

Axl kinase = target: T1, Axl kinase (Homo sapiens, UniProt P30530); assay: Axl kinase inhibition assay (Kinase-Glo); type: biochemical; conditions: 3 μM ATP
T1 construct: purchased BPS Bioscience Inc, San Diego Calif
T1 sequence (P30530 26-894): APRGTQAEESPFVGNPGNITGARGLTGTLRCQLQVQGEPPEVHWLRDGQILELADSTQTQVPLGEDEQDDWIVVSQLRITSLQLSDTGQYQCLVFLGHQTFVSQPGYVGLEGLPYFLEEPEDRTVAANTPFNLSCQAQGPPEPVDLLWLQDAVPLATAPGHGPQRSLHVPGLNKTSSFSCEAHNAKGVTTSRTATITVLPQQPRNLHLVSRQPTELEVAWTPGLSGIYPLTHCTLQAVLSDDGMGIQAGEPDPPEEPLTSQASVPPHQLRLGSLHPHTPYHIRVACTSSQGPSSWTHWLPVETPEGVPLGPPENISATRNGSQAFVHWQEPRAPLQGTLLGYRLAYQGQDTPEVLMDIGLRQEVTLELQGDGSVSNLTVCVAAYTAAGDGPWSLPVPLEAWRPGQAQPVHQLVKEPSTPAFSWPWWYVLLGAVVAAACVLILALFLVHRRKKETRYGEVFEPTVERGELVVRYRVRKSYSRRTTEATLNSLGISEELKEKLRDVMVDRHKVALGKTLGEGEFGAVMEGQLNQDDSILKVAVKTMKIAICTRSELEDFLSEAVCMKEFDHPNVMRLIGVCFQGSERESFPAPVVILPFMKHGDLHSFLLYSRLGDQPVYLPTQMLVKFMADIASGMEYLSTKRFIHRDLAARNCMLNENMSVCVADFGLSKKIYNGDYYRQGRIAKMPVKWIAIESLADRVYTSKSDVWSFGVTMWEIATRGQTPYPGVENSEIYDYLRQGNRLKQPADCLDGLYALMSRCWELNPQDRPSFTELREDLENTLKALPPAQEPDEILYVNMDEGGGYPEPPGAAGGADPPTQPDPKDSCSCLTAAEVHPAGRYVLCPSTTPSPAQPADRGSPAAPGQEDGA
Procedure: One illustrative manner in which Axl kinase activity can be determined is by quantifying the phosphorylation of a known Axl substrate in an in vitro assay. In this assay kinase activity is determined by quantifying the amount of ATP remaining in solution following the kinase reaction by measuring the relative light units (RLU) produced by luciferase using a luminometer. Percent activity was determined for individual compounds by comparing luminometer readings of drug-treated reactions to controls containing no drug (RLUNO Inhib) and no […] enzyme (RLUNO Kinase) in the following equation: […]
In a 50 μl reaction, 200 ng/μl of Axl kinase (BPS Bioscience Inc, San Diego Calif.) was incubated at 30° C. for two hours with shaking (360 rpm) with 10 μg/ml Poly (Glu:Tyr) substrate (BPS Bioscience Inc, Calif.), 3 μM ATP. (Invitrogen, Carlsbad, Calif.) and kinase reaction buffer (40 mM MOPS, 75 mM MgCl2 and 0.1 mM EDTA). The value of 3 μM ATP was determined to be the Km (concentration at which the enzyme is working at 50% maximum velocity) for the amount of enzyme used in this assay. […] Kinase activity is determined by quantifying the amount of ATP remaining in solution following the kinase reaction by measuring the relative light units (RLU) produced by luciferase using a luminometer (Thermo Electron Corporation, Vantaa, Finland).

[1] = tested on: Granta-4 lymphoma cell line; assay: lymphoma cell number reduction, Granta-4; type: cell-based; conditions: 48 hours; read-out: IC50 Values Granta-4, single agent
Procedure: (§2) New IC50 values were calculated for the second agent in an effort to determine whether or not pretreatment with one compound would increase sensitivity to the other. As set forth in the table below, compound 2-3 pretreatment led to an increased sensitivity to Taxol®, however Taxol® pretreatment appeared to be […] to compound 2-3 in this assay.

[2] = tested on: Granta-22 lymphoma cell line; assay: lymphoma cell number reduction, Granta-22; type: cell-based; conditions: 48 hours; read-out: IC50 Values Granta-22, single agent
Procedure: as §2

[3] = 96 h, Example 20, 4 days, read-out: Cell-based IC50 values TT

Row | Structure (SMILES) | IC50 (TT (medullary thyroid); [3]) | other results
1 | CC(=O)NS(=O)(=O)c1ccc(NC(=S)N2CCN(c3ncnc4[nH]c5cc(C(F)(F)F)c(Cl)cc5c34)CC2)cc1 [Compound 1-1, 4-(6-Chloro-7-trifluoromethyl-9H-pyrimido[4,5-b]indol-4-yl)-piperazine-1-carbothioic acid (4-acetylsulfamoyl-phenyl)-amide] | 11 µM | IC50 (TT (medullary thyroid); 96 h, Example 18, 4 days, read-out: calculated IC50 TT): 51.7 µM; IC50 (TT (medullary thyroid); Table 10, 96 hours, read-out: IC50 TT (inhibit cell growth to 50% of untreated)): 51.7 µM; IC50 (Axl kinase): 9.8 µM
2 | COc1cc2[nH]c3ncnc(N4CCN(C(=S)Nc5ccc(S(=O)(=O)NC(C)=O)cc5)CC4)c3c2cc1OC [Compound 1-2, 4-(6,7-Dimethoxy-9H-pyrimido[4,5-b]indol-4-yl)-piperazine-1-carbothioic acid (4-acetylsulfamoyl-phenyl)-amide] | 64 µM | 
3 | CC(=O)NS(=O)(=O)c1ccc(NC(=S)N2CCN(c3ncnc4[nH]c5ccc(Cl)cc5c34)CC2)cc1 [Compound 1-3, 4-(6-chloro-9H-pyrimido[4,5-b]indol-4-yl)-piperazine-1-carbothioic acid (4-acetylsulfamoyl-phenyl)-amide] | 13.2 µM | 
4 | COc1cc2[nH]c3ncnc(N4CCN(C(=S)Nc5ccc(NC(=O)C6CC6)cc5)CC4)c3c2cc1OC [Compound 1-34] | 99.1 µM | 
5 | COc1cc2[nH]c3ncnc(N4CCN(C(=S)Nc5ccc(NC(C)=O)cc5)CC4)c3c2cc1OC [Compound 1-42] | 129 µM | 
6 | COc1cc2[nH]c3ncnc(N4CCN(C(=S)Nc5ccc(S(N)(=O)=O)cc5)CC4)c3c2cc1OC [Compound 1-107] | 147 µM | 
7 | COc1cc2[nH]c3ncnc(N4CCN(C(=S)Nc5ccc(S(C)(=O)=O)cc5)CC4)c3c2cc1OC [Compound 1-115] | 38.6 µM | 
8 | COc1cc2[nH]c3ncnc(N4CCN(C(=S)Nc5ccc(S(=O)(=O)Nc6ccc(F)cc6)cc5)CC4)c3c2cc1OC [Compound 2-3, 4-(6,7-dimethoxy-9H-pyrimido[4,5-b]indol-4-yl)-N-(4-(N-(4-fluorophenyl)sulfamoyl)phenyl)piperazine-1-carbothioamide] |  | IC50 [1]: 2040 nM; IC50 [2]: 6.67 µM
